Measurements from patent EP1579856A1 (LABORATOIRES BESINS INTERNATIONAL, priority 2004, dated 2005).
Like-named read-outs stand apart in the source and are kept apart here. Marks after values point to notes of the source that are not given here.

How the values were obtained:
[1] = clinical; set-up: species or system women; settings: in vivo
Experimental: At the end of a menstrual cycle, each patient received a single dose, after which serial blood samples were collected at 0, 0.5, 1, 1.5, 2, 3, 4, 6, 12, 18, 24, 36, 48, and 72 hours.

[2] = in vivo
Experimental: Each participant applied the gel daily for the duration of two menstrual cycles.
On the first day of the following menstruation, treatment, which consisted of daily application of the gel over two menstrual cycles, began. Blood samples were collected 24 hours following the morning application of gel on days 7, 20 and 25 of the first and second cycles. On the last day of administration, day 25 of the second menstrual cycle, serial blood samples were collected prior to application and at 0.5, 1, 1.5, 2, 3, 4, 6, 12, 18, 24, 36, 48, and 72 hours after application of the gel.

[3] = in vivo; remark: listed apart in the source
Experimental: (§1) The patients received [^3H]-labeled drug applied directly on the affected breasts at specified intervals ranging from 12 hours to 7 days before surgery to excise diseased tissue. Breast tissue from three regions: the tumor, tissue immediately surrounding the tumor, and normal tissue, was excised and immediately frozen in liquid nitrogen. Additionally, plasma and urine samples were obtained at scheduled intervals and frozen until analysis.

[4] = in vivo; remark: listed apart in the source
Experimental: as §1

[5] = in vivo; remark: listed apart in the source
Experimental: as §1

[6] = biological target: T1, estrone sulphatase (Homo sapiens, UniProt P08842); settings: mammary cancer cell lines; cited from earlier work
T1 construct: estrone sulphatase activity in mammary cancer cell lines; endogenous in cells
T1 sequence (P08842 22-583): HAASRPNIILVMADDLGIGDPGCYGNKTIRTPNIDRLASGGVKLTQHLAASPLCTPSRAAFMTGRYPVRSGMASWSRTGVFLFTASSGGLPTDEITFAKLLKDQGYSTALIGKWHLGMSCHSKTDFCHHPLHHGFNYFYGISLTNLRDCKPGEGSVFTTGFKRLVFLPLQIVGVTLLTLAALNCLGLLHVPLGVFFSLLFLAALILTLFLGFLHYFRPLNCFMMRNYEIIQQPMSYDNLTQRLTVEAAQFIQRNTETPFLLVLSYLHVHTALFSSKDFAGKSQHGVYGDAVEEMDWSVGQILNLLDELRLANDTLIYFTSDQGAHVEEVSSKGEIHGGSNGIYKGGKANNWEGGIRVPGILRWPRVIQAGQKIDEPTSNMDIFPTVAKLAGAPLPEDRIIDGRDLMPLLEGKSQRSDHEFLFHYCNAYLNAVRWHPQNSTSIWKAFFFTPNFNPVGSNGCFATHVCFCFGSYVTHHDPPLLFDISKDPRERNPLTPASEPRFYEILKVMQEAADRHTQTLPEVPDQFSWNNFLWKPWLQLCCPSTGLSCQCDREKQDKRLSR

[7] = percutaneous dose of 1 mg/breast/day; cited from earlier work
[8] = Group 2: 4-OHT gel (20 mg/100 g) 0.5 mg/day, both breasts, 3-4 weeks; n=5; cited from earlier work
[9] = system: estrogen receptors; settings: more affinity than tamoxifen; cited from earlier work
[10] = system: rat liver; settings: in vivo; cited from earlier work
[11] = Example 1 follow-up study: radioactivity and metabolites in blood
Experimental: as §1

[12] = system: normal human epithelial breast cells; settings: more than Z-tamoxifen; cited from earlier work
[13] = cited from earlier work
[14] = system: p53(-) normal human mammary epithelial cells; settings: cited from earlier work
[15] = cited from earlier work; remark: listed apart in the source
[16] = Example 1 follow-up study: radioactivity and metabolites in breast tissue after percutaneous application; settings: for % Metabolites in Breast Tissue: breast tumor tissue
Experimental: as §1

[17] = oral tamoxifen group, 20 mg/day

Compound: CCC(=C(c1ccc(O)cc1)c1ccc(OCCN(C)C)cc1)c1ccccc1 [4-hydroxy tamoxifen, 1-[4-(2-N-dimethylaminoethoxy)phenyl]-1-(4-hydroxyphenyl)-2-phenylbut-1-ene]
- t1/2 (Range) ([1]; human, topical or ocular): (49 - 101) hr
- half-life ([1]; human, topical or ocular, t1/2 (Range)): 58 to 118 h
- patients with detectable plasma concentrations (>5 pg/mL) [1]: 6 of 12
- laboratory or clinical evidence of systemic effects [2]: no detectable
- distribution within breast tissue [3]: concentrated predominantly in the cytosolic and nuclear fractions of breast tissue
- metabolism in intracellular sites of breast tissue [3]: remained unmetabolized except for limited isomerization from the Z to the E form
- retention in the breast [3]: approximately 4 days
- % of radioactivity in blood represented by [4]: 68%
- peak urinary elimination [5]: later time
- inhibitory effect on estrone sulphatase activity [6]: significant inhibitory effect
- 4-hydroxy tamoxifen concentration in breast tissue exceeds normal estradiol concentrations in breast tissue by a factor of [7]: 4
- Mean ± SD 4-hydroxy tamoxifen (Range), Plasma Concentrations, Day Pre-Surgery [8]: 0 (0 - 0)^a pg/mL
- affinity for estrogen receptors [9]: 100 fold
- rat liver carcinogen [10]: not

Compound: CCC(=C(c1ccc(O)cc1)c1ccc(OCCNC)cc1)c1ccccc1 [N-Desmethyl-4-Hydroxy Tamoxifen]
- % of radioactivity in blood represented by ([11]; 24 hours after percutaneous administration of [3H]-4-hydroxy tamoxifen): 18%

Compound: CC/C(=C(\c1ccc(O)cc1)c1ccc(OCCN(C)C)cc1)c1ccccc1 [Z-4-hydroxy tamoxifen]
- inhibits the growth in culture of normal human epithelial breast cells [12]: 100 fold

Compound: CC/C(=C(\c1ccccc1)c1ccc(OCCN(C)C)cc1)c1ccccc1 [[^3H]-tamoxifen, reference compound]
- plateau of radioactivity in blood ([11]; percutaneous application): 2 days

Compound: CC/C(=C(\c1ccccc1)c1ccc(OCCN(C)C)cc1)c1ccccc1 [tamoxifen]
- inhibitory effect on estrone sulphatase activity [6]: little or no effect
- decrease of risk of benign breast disease ([13]; cyst): 34%
- decrease of risk of benign breast disease ([13]; duct ectasia): 28%
- decrease of risk of benign breast disease ([13]; fibrocystic disease): 33%
- decrease of risk of benign breast disease ([13]; hyperplasia): 40%
- reduces the risk of developing benign breast disease ([13]; overall): 28%
- reduction of the need for breast biopsies ([13]; women under 50): 41%
- rat liver carcinogen [10]: potent rat liver carcinogen
- initiates apoptosis [14]: initiates apoptosis
- side effects reported by one person ([15]; Group 2 (0.5 mg/day gel): seventh day of treatment, Group 1 (oral tamoxifen): fifth day of treatment): hot flashes and mild vaginitis
- anti-thrombin III and fibrinogen, pre- versus post treatment [15, 17]: statistically significant decrease
- platelet and lymphocyte counts, pre- versus post treatment [15, 17]: statistically significant increase
- % Metabolites in Breast Tissue ([16]; Day 4 after percutaneous administration of Z-[3H]-4-hydroxy tamoxifen to the affected breast): <1%
- % Metabolites in Breast Tissue ([16]; Day 7 after percutaneous administration of Z-[3H]-4-hydroxy tamoxifen to the affected breast): 2%
- retention in the breast ([16]; percutaneous application of [3H]-labeled drug): shorter and far weaker
